Experimental data reported in patent US5132111A (priority 1990, dated 1992).
Non-standard residues stand in square brackets, D forms with d. Residues, ends and D or L forms follow the SMILES beside them. hArg = N=C(N)NCCCC[C@H](N)C(=O)O; Nle = CCCC[C@H](N)C(=O)O

test system: cultured rat pituitary cells; format: cell-based

| Compound | secretion of ACTH | secretion of β-endorphin (β-END-LI) |
| --- | --- | --- |
| CCCC[C@H](NC(=O)[C@H](CCC(=O)O)NC(=O)[C@H](CC(C)C)NC(=O)[C@H](CCCC)NC(=O)[C@H](CCC(=O)O)NC(=O)[C@H](CCCNC(=N)N)NC(=O)[C@H](CC(C)C)NC(=O)[C@H](CC(C)C)NC(=O)[C@H](Cc1c[nH]cn1)NC(=O)[C@H](Cc1ccccc1)NC(=O)[C@@H](NC(=O)[C@H](CC(C)C)NC(=O)[C@H](CC(=O)O)NC(=O)[C@H](CC(C)C)NC(=O)[C@H](CO)NC(=O)[C@@H](NC(=O)[C@@H]1CCCN1)[C@@H](C)CC)[C@@H](C)O)C(=O)N[C@@H](C)C(=O)N[C@@H](CCCNC(=N)N)C(=O)N[C@@H](C)C(=O)N[C@@H](CCC(=O)O)C(=O)N[C@@H](CCC(N)=O)C(=O)N[C@@H](CCC(=O)O)C(=O)N[C@@H](C)C(=O)N[C@@H](CCC(=O)O)C(=O)N[C@@H](CCC(N)=O)C(=O)N[C@@H](C)C(=O)N[C@@H](C)C(=O)N[C@@H](CC(C)C)C(=O)N[C@@H](CC(N)=O)C(=O)N[C@@H](CCCNC(=N)N)C(=O)N[C@@H](CC(C)C)C(=O)N[C@@H](CC(C)C)C(=O)N[C@@H](CC(C)C)C(=O)N[C@@H](CCC(=O)O)C(=O)N[C@@H](CCC(=O)O)C(=O)N[C@@H](C)C(N)=O [[Nle^18,21, ]-AAHC(5-41)] (H-PISLDLTFHLLRE[Nle]LE[Nle]ARAEQEAEQAALNRLLLEEA-NH2) | stimulates | stimulates |
| H-GEEPPISLDLTFHLLREVLEMARAEQLAQQAHLNRRLMEEI-NH2 [[Gly^1, Leu^33, Glu^40]-rCRF] | stimulates | stimulates |
| H-PPISLDLTFHLLREVLEMARAEQLAEQAHSNRRYMEEI-NH2 | stimulates | stimulates |
| H-PPISLDLTFHLLREVLEMARAEQLAQQAHLNRRLMEEI-NH2 | stimulates | stimulates |
| H-SEEPPISLDLTFHLLREVLEMTRAEQLAEQAHSNRRLMEEI-NH2 [[Thr^22, Glu^29,40, Arg^36]-rCRF] | stimulates | stimulates |
| H-SEEPPISLDLTFHLLREVLE[Nle]ARAEQLAEQAHSNRRL[Nle]EII-NH2 [[Nle^21,38, Glu^29, Arg^36]-rCRF] | stimulates | stimulates |
| H-SEEPPISLDLTFHLLREVLE[Nle]ARAEQLAQQAYLNRRL[Nle]EEI-NH2 | stimulates | stimulates |
| H-SEEPPISLDLTFHLLREVLE[Nle]A[hArg]AEQLAQQAHLNRRLMEE[Nle]-NH2 | stimulates | stimulates |
| H-SEEPPISLDLTLELLREMLEME[hArg]AEREAEQAALNRLLLEEA-NH2 | stimulates | stimulates |
| H-SEEPPISLELTFHLLREVLE[Nle]ARAEQLAEQAHLNRRL[Nle]EII-NH2 | stimulates | stimulates |
| H-SEEPPIS[Nle]DLSFHLLREVLEMARAEQLAQQAHLNRRLMEEI-NH2 | stimulates | stimulates |
| H-SQEPPISLDLTFALLREMLEMARAEQEAEQAALNRLLLEEA-NH2 [[Ala13]-AAHC] | stimulates | stimulates |
| H-SQEPPISLDLTFHLLREMLEMARAEQEAEQAALNRLLLEEA-NH2 [AAHC] | biologically potent to stimulate the secretion | biologically potent to stimulate the secretion |
| H-SQEPPISLDLTFHLLREVLEMARAEQLAEQAHSNRRLLEII-NH2 [[Gln^2, Glu^29, Leu^38]-rCRF] | stimulates | stimulates |
| H-SQEPPISLDLTFHLLREVLEMTRADQLAQQAHSNRRLLDIA-NH2 [[Arg^23,36]-oCRF] | stimulates | stimulates |
| H-SQEPPISLDLTFHLLREVLE[Nle]TRADQLAQQAHSNRRLLDIA-NH2 [[Nle^21, Arg^23,36]-oCRF] | stimulates | stimulates |
| H-SQEPPISLDLTFHLLRE[Nle]LE[Nle]ARAEQEAEQAALNRLLLEEA-NH2 [[Nle^18, 21]-AAHC] | stimulates | stimulates |
| H-SQEPPISLDLTFHLLRE[Nle]LE[Nle]TRADQLRQQAHSNRRLLDIA-NH2 [[Nle^18,21,Arg^23,28,36]-oCRF] | stimulates | stimulates |
| H-SQEPPISLELTFHLLRE[Nle]LE[Nle]ARAEQEAEQAALNRLLLEEA-NH2 [[Glu^9, Nle^18, 21]-AAHC] | stimulates | stimulates |
| H-SQE[dP]PISLDLTFHLLRE[Nle]LE[Nle]ARAEQEAEQAALNRLLLEEA-NH2 [[D-Pro^4, Nle^18,21]-AAHC] | stimulates | stimulates |
| H-SQ[dY][dP]PISLDLTFHLLRE[Nle]LE[Nle]ARAEQEAEQAALNRLLLEEA-NH2 [[D-Tyr^3, D-Pro^4, Nle^18, 21]-AAHC] | stimulates | stimulates |
| H-Ser-Gln-Glu-Pro-Pro-Ile-Ser-Leu-Asp-CML-Thr-Leu-Glu-Leu -Leu-Arg-Glu-Met-Leu-Glu-Met-Ala-Arg-Ala-Glu-Gln-Glu-Ala -Glu-Gln-Ala-Ala-Leu-Asn-Arg-Leu-Tyr-Leu-Glu-Glu-Ala-NH2 [[Leu^12, Glu^13, Tyr^37]-AAHC] | stimulates | stimulates |
| H-VSEPPISLDLTFHLLREVLEMARAEQLAQQAHSNRRLMEEI-NH2 [[Val^1, Ser^2, Arg^36, Glu^40]-rCRF] | stimulates | stimulates |

test system: secretion of ACTH and β-END-LI

| Compound | secretion of ACTH (inhibition) | secretion of β-END-LI (inhibition) |
| --- | --- | --- |
| CCCC[C@H](N)C(=O)N[C@@H](CC(=O)O)C(=O)N[C@@H](CC(C)C)C(=O)N[C@@H](CO)C(=O)N[C@@H](Cc1ccccc1)C(=O)N[C@@H](Cc1c[nH]cn1)C(=O)N[C@@H](CC(C)C)C(=O)N[C@@H](CC(C)C)C(=O)N[C@@H](CCCNC(=N)N)C(=O)N[C@@H](CCC(=O)O)C(=O)N[C@H](C(=O)N[C@@H](CC(C)C)C(=O)N[C@@H](CCC(=O)O)C(=O)N[C@@H](CCSC)C(=O)N[C@@H](C)C(=O)N[C@@H](CCCNC(=N)N)C(=O)N[C@@H](C)C(=O)N[C@@H](CCC(=O)O)C(=O)N[C@@H](CCC(N)=O)C(=O)N[C@@H](CC(C)C)C(=O)N[C@@H](C)C(=O)N[C@@H](CCC(N)=O)C(=O)N[C@@H](CCC(N)=O)C(=O)N[C@@H](C)C(=O)N[C@@H](Cc1c[nH]cn1)C(=O)N[C@@H](CC(C)C)C(=O)N[C@@H](CC(N)=O)C(=O)N[C@@H](CCCNC(=N)N)C(=O)N[C@@H](CCCNC(=N)N)C(=O)N[C@@H](CC(C)C)C(=O)N[C@@H](CCSC)C(=O)N[C@@H](CCC(=O)O)C(=O)N[C@H](C(=O)N[C@H](C(N)=O)[C@@H](C)CC)[C@@H](C)CC)C(C)C (H-[Nle]DLSFHLLREVLEMARAEQLAQQAHLNRRLMEII-NH2) | inhibits | inhibits |
| CCCC[C@H](NC(=O)[C@H](CCC(=O)O)NC(=O)[C@H](CC(C)C)NC(=O)[C@H](CCCC)NC(=O)[C@H](CCC(=O)O)NC(=O)[C@H](CCCNC(=N)N)NC(=O)[C@H](CC(C)C)NC(=O)[C@H](CC(C)C)NC(=O)[C@H](CCC(=O)O)NC(=O)[C@H](Cc1ccccc1)NC(=O)[C@@H](NC(=O)[C@H](CC(C)C)NC(=O)[C@@H](N)CC(=O)O)[C@@H](C)O)C(=O)N[C@@H](C)C(=O)N[C@@H](CCCNC(=N)N)C(=O)N[C@@H](C)C(=O)N[C@@H](CCC(=O)O)C(=O)N[C@@H](CCC(N)=O)C(=O)N[C@@H](CCC(=O)O)C(=O)N[C@@H](C)C(=O)N[C@@H](CCC(=O)O)C(=O)N[C@@H](CCC(N)=O)C(=O)N[C@@H](C)C(=O)N[C@@H](C)C(=O)N[C@@H](CC(C)C)C(=O)N[C@@H](CC(N)=O)C(=O)N[C@@H](CCCNC(=N)N)C(=O)N[C@@H](CC(C)C)C(=O)N[C@@H](CC(C)C)C(=O)N[C@@H](CC(C)C)C(=O)N[C@@H](CCC(=O)O)C(=O)N[C@@H](CCC(=O)O)C(=O)N[C@@H](C)C(N)=O [[Glu^13,Nle^18,21]-AAHC(9-41)] (H-DLTFELLRE[Nle]LE[Nle]ARAEQEAEQAALNRLLLEEA-NH2) | inhibits | inhibits |
| CCCC[C@H](NC(=O)[C@H](CCC(=O)O)NC(=O)[C@H](CC(C)C)NC(=O)[C@H](CCCC)NC(=O)[C@H](CCC(=O)O)NC(=O)[C@H](CCCNC(=N)N)NC(=O)[C@H](CC(C)C)NC(=O)[C@H](CC(C)C)NC(=O)[C@H](Cc1c[nH]cn1)NC(=O)[C@H](Cc1ccccc1)NC(=O)[C@@H](NC(=O)[C@H](CC(C)C)NC(=O)[C@H](CC(=O)O)NC(=O)[C@@H](N)CC(C)C)[C@@H](C)O)C(=O)N[C@@H](C)C(=O)N[C@@H](CCCNC(=N)N)C(=O)N[C@@H](C)C(=O)N[C@@H](CCC(=O)O)C(=O)N[C@@H](CCC(N)=O)C(=O)N[C@@H](CCC(=O)O)C(=O)N[C@@H](C)C(=O)N[C@@H](CCC(=O)O)C(=O)N[C@@H](CCC(N)=O)C(=O)N[C@@H](C)C(=O)N[C@@H](C)C(=O)N[C@@H](CC(C)C)C(=O)N[C@@H](CC(N)=O)C(=O)N[C@@H](CCCNC(=N)N)C(=O)N[C@@H](CC(C)C)C(=O)N[C@@H](CC(C)C)C(=O)N[C@@H](CC(C)C)C(=O)N[C@@H](CCC(=O)O)C(=O)N[C@@H](CCC(=O)O)C(=O)N[C@@H](C)C(N)=O [[Nle^18,21]-AAHC(8-41)] (H-LDLTFHLLRE[Nle]LE[Nle]ARAEQEAEQAALNRLLLEEA-NH2) | inhibits | inhibits |
